Source: publication PMC11678426, “Phytochemical Study and In Vitro Antioxidant Activity of Helianthemum cinereum Along with Antitumor Activity of the Isolated trans-Tiliroside and Luteolin 4′-O-β-Xyloside” (Molecules, 2024)
Several values for one entry are separate records, joined by “and”; a condition that tells them apart may be missing. Equal values may be shown once. Blank lines part the entries; values can stand above or below the molecule they belong to.

Columns and labels:
[1] = DPPH radical scavenging capacity
Method: Different concentrations of H. cinereum extract were prepared in methanol and aliquots of 100 μL were added to 3.5 mL of DPPH (Sigma-Aldrich, Steinheim, Germany) solution (30 μg/g in methanol). A blank consisting of DPPH solution without extract was prepared. All samples were kept in darkness for 15 min. Then, the absorbance was measured against a blank (Methanol) at 515 nm in a UV-Vis spectrophotometer (UV 1700, Shimadzu, Japan). The DPPH solution was daily prepared and the concentration was checked using a calibration curve obtained by preparation of serial concentrations (4, 8, 16, 32 and 64 μg/g). […] The obtained IC50 value is inversely proportional to the antioxidant activity.

[2] = design: method as in doi:10.3390/app7040400; conditions: cited from earlier work
IL-5 = tested on: IL-5; design: method as in PMID 10418337; conditions: from Kummerowia striata; cited from earlier work
A375 melanoma cell line = assay: Cell viability by MTT assay, A375; assay type: cell-based; conditions: for concentrations giving significant decrease in cell viability: 72 h
Method: (§1) The immortalized human keratinocytes HaCaT cells were obtained from Cell Lines Services (Eppelheim, Germany). The A549 cell lines were acquired from the European Collection of Authenticated Cell Cultures (ECACC) and supplied by Sigma-Aldrich (St. Louis, MO, USA), the A375 cell lines were acquired from ATCC and supplied by LGC Standards (Barcelona, Spain), and Mia PaCa-2 and Panc-1 cell lines were kindly provided by Dr. Sónia Melo […], Porto, Portugal). […] Cells were cultured at 5% CO2 and at 37 °C. A stock solution was made by dissolving trans-tiliroside or luteolin 4'-O-β-xyloside in dimethyl sulfoxide (DMSO, Sigma-Aldrich, St. Louis, MO, USA). All cell lines were seeded in 96-well plates at a density of 12,500 cells/mL and incubated for 24 h for adhesion. […] After the exposure, cell viability was assessed by 3-(4,5-dimethyl-2-thiazolyl)-2,5-diphenyl-2H-tetrazolium bromide (MTT, Sigma-Aldrich, St. Louis, MO, USA) assay. Briefly, the exposure medium was replaced by fresh medium and 50 μL of MTT (1.0 mg/mL dissolved in phosphate-buffered saline, PBS, PAN-Biotech, Aidenbach, Germany) and plates were incubated for 3 h. Then, the medium was removed and 150 μL of DMSO was added and plates were shaken in the dark for 1 h. The absorbance was read in a microplate reader BioTek Synergy HT plate reader at 570 nm. Cells with only medium without compounds were used as control. Three independent assays were completed with three replicates each. Cell viability was further calculated using the Equation (3):(3) Cell Viability % of control=Sample Absorbance-Blank Absorbance/Control Absorbance-Blank Absorbance×100

[3] = tested on: Mia PaCa-2 pancreatic cancer cell line; assay: Cell viability by MTT assay, Mia PaCa-2; assay type: cell-based; conditions: Mia PaCa-2, MTT; for IC50: Homo sapiens, 72 h exposure
Method: as §1

[4] = ABTS radical scavenging assay
Method: The ABTS radical scavenging activity of H. cinereum extracts was assessed according to the method described by. Firstly, 1 mL of ABTS (Sigma-Aldrich, Steinheim, Germany) stock solution (7 mM) was mixed with 88 μL of potassium persulfate solution (140 mM) and kept overnight protected from light and at room temperature. Next, the mixture was diluted with potassium buffer saline (0.2 M, pH 7.4) to obtain an ABTS solution with an absorbance of 0.70 ± 0.02 at 734 nm. […] The reaction took place in the dark for 6 min, and the absorbance at 734 nm was measured. Samples containing the same volume of methanol and the same dilution of ascorbic acid served as white and positive controls, respectively. […] A2 is the solvent and sample mixture absorbance and A0 is the absorbance of the solvent and ABTS radical mixture.

[5] = tested on: pancreatic cancer cell lines; design: method as in PMID 26527884; conditions: cited from earlier work
A549 cell line = tested on: A549 cell line; design: method as in PMID 20589534, PMID 29393891; conditions: cited from earlier work
Panc-1 cells [6] = tested on: Panc-1 cells; design: method as in PMID 38412575; conditions: 72 h of exposure; read-out: IC50 growth of Panc-1 cells; cited from earlier work
A375 cells = assay: Cell cycle analysis by flow cytometry, A375; assay type: cell-based; conditions: A375, IC50 concentration (102 μM), 72 h
Method: (§2) Cells were seeded in 12-well plates as described before. […] Then, cells were collected, washed with PBS, fixed with 85% ethanol and stored at −20 °C until analysis. For analysis, cells were washed, resuspended in PBS and filtered to Eppendorf tubes. Samples were incubated with 50 μL of RNAse (Sigma-Aldrich, St. Louis, MO, USA) for 10 min and next with 50 μL of propidium iodide (PI, ≥94%; Sigma-Aldrich, St. Louis, MO, USA) for 20 min. Cells were analyzed with an Attune® Acoustic Focusing Cytometer (Applied Biosystems, Termo Fischer Scientific, Agawam, MA, USA) and the percentages of cells at each phase of the cell cycle were determined using the FlowJo software V10.7.1 (FlowJo LLC, Ashland, OR, USA). Two independent assays with two replicates each were performed, with at least 5000 events.

Panc-1 cells [7] = assay: Cell cycle analysis by flow cytometry, Panc-1; assay type: cell-based; conditions: Panc-1, IC50 concentration (54 μM), 72 h
Method: as §2

[8] = tested on: immortalized human keratinocytes HaCaT; assay: Cell viability by MTT assay, HaCaT; assay type: cell-based; conditions: 72 h exposure
Method: as §1, with “Then, the medium was removed and 150 μL of DMSO was added and plates were shaken in the dark for 1 h.” left out, “Cells with only medium without compounds were used as control. Three independent assays were completed with three replicates each.” left out

[9] = tested on: A549 lung cancer cell line; assay: Cell viability by MTT assay, A549; assay type: cell-based
Method: as §1, with “Then, the medium was removed and 150 μL of DMSO was added and plates were shaken in the dark for 1 h.” left out, “Cells with only medium without compounds were used as control. Three independent assays were completed with three replicates each.” left out

[10] = tested on: B16-F10 cells, melanoma cell line; design: method as in earlier work; conditions: 168 μM, 72 h; ref 41 (Lu et al. 2009); cited from earlier work
Mia PaCa-2 cells = assay: Cell cycle analysis by flow cytometry, Mia PaCa-2; assay type: cell-based; conditions: Mia PaCa-2, IC50 concentration (46.2 μM), 72 h
Method: as §2

[11] = tested on: Panc-1 pancreatic cancer cell line; assay: Cell viability by MTT assay, Panc-1; assay type: cell-based; conditions: Panc-1, MTT
Method: as §1, with “Then, the medium was removed and 150 μL of DMSO was added and plates were shaken in the dark for 1 h.” left out, “Cells with only medium without compounds were used as control. Three independent assays were completed with three replicates each.” left out

HaCaT cells = assay: Cell cycle analysis by flow cytometry, HaCaT; assay type: cell-based, human; conditions: IC50 concentration (122 μM), 72 h
Method: as §2

A549 cells = assay: Cell cycle analysis by flow cytometry, A549; assay type: cell-based; conditions: A549, IC50 concentration (108 μM), 72 h
Method: as §2

DPPH (IC50) [1]: 3.36 ± 0.13 µg/g
SMILES: O=C1O[C@H]([C@@H](O)CO)C(O)=C1O [Ascorbic acid]

SMILES: COc1cc2c(=O)oc3c(OC)c(OS(=O)(=O)O)cc4c(=O)oc(c1OC)c2c34 [Compound 12, 3,3′,4′-tri-O-methyl-ellagic acid 4-sulfate]
cytotoxic effect [2]: cytotoxic effect

SMILES: O=c1cc(-c2ccc(OC3OC(CO)C(O)C(O)C3O)c(O)c2)oc2cc(O)cc(O)c12 (stereo not drawn) [Luteolin 4′-O-glucoside, luteolin 4′-O-β-glucoside]
IL-5 inhibition (IL-5): IL-5 inhibitor

IC50 [3]: 229 ± 9.09 µM
SMILES: O=c1cc(-c2ccc(OC3OCC(O)C(O)C3O)c(O)c2)oc2cc(O)cc(O)c12 (stereo not drawn) [Luteolin 4′-O-β-xyloside, luteolin 4′-O-β-xyloside]
concentrations giving significant decrease in cell viability (A375 melanoma cell line): up to 75 μM

ABTS (IC50) [4]: 23.2 ± 0.54 µg/mL
DPPH (IC50) [1]: 12 ± 0.41 µg/mL
SMILES: Cc1c(C)c2c(c(C)c1O)CCC(C)(C(=O)O)O2 (centres unmarked) [Trolox]

SMILES: O=c1cc(-c2ccc(O)c(O)c2)oc2cc(O)cc(O)c12 [luteolin aglycone, luteolin]
concentrations strongly affecting pancreatic cancer cell lines [5]: above 160 μM
IC50 (A549 cell line): 32.6 µM and 40 µM

IC50 (A375 melanoma cell line; Homo sapiens, A-375, 72 h exposure): 102 ± 2.56 µM
IC50 [3]: 46.2 ± 0.89 µM
IC50 ([9]; Homo sapiens, 72 h exposure): 108 ± 2.8 µM
IC50 ([11]; Homo sapiens, 72 h exposure): 54 ± 1.95 µM
SMILES: O=C(/C=C/c1ccc(O)cc1)OC[C@H]1O[C@@H](Oc2c(-c3ccc(O)cc3)oc3cc(O)cc(O)c3c2=O)[C@H](O)[C@@H](O)[C@@H]1O [trans-tiliroside, kaempferol-3-O-[6″-O-(E)-p-coumaroyl]-β-D-glucoside]
IC50 (Panc-1 cells [6]): 68.5 µM
concentrations giving significant decrease in cell viability (A375 melanoma cell line): ≥ 75 µM
concentrations affecting cell viability ([3]; 72 h): ≥ 50 µM
effect on cell cycle dynamics (A375 cells): no alterations on the cell cycle dynamics
effect on cell cycle dynamics (Panc-1 cells [7]): no alterations on the cell cycle dynamics
IC50 [8]: 122 ± 1.8 µM
concentrations giving significant decrease in cell viability ([9]; 72 h): ≥ 75 µM
decline in the viability of B16-F10 cells [10]: 80%
increase of cells at G2/M phase compared to the control (Mia PaCa-2 cells): 3.9%
increase of cells at the S phase compared to the control (Mia PaCa-2 cells): 5.6%
concentration causing decline of cell viability ([11]; 72 h): 10 µM
effect on cell cycle dynamics (HaCaT cells): no alterations on the cell cycle dynamics
effect on cell cycle dynamics (A549 cells): no alterations on the cell cycle dynamics
